{"source": "paper PMC4033646", "about": "(ACS Chemical Biology, 2014)", "biological_target": "(α4)2(β2)3 nAChR (A2B3, high affinity) (Rattus norvegicus, UniProt P09483+P12390, P09483:H144V/P09483:Q152F/P09483:T154L)", "sequence (P12390 25-500)": "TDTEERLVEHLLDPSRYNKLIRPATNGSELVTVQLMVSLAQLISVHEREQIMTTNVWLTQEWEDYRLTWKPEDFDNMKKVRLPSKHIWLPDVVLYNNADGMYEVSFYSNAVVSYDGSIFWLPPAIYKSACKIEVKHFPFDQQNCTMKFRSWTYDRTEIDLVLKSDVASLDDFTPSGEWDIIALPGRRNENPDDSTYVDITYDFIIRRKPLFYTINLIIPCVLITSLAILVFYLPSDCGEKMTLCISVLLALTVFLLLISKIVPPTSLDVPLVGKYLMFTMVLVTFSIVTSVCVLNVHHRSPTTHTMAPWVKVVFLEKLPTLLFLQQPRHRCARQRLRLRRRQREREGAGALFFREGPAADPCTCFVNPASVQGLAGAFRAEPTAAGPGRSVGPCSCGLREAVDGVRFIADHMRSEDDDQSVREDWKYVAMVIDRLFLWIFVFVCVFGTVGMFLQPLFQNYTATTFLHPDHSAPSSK", "sequence (P09483 31-630 H144V/Q152F/T154L)": "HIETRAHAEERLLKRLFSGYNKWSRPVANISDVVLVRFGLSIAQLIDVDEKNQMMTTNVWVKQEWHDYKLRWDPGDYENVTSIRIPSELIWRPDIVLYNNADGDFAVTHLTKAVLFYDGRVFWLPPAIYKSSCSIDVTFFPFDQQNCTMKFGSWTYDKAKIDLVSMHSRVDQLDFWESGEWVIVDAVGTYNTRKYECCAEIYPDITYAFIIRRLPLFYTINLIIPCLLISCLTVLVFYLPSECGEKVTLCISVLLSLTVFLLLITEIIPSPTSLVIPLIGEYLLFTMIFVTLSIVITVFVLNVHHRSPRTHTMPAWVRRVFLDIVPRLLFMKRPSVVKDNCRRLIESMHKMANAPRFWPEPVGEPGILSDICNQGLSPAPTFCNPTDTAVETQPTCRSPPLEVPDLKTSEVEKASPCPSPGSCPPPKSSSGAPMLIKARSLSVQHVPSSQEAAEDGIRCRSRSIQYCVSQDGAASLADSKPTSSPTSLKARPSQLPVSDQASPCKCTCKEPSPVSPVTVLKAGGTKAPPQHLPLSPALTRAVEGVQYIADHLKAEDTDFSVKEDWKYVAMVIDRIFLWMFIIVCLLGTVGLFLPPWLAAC", "test": "two-electrode voltage clamp, Xenopus oocytes, agonist dose-response", "assay_type": "cell-based", "details": "-60 mV, ND96 Ca2+ free, pH 7.5"}
{"compound": "OCCCCC#Cc1cncc(OC[C@@H]2CCN2)c1", "note": "[sazetidine-A]", "values": [{"measurement": "EC50", "result": "4.8 ± 0.3", "unit": "nM"}]}
